The values that follow are results of earlier work, collected in US20090221469A1, “USE OF SOY KEFIR POWDER FOR REDUCING PAIN, BLOOD PRESSURE AND INFLAMMATION” (KCLM RESEARCH IN NUTRITION INC., priority 2006, published 2009).

The test system of series [1] is patients with neuralgia or moderate to severe nonmalignant pain. To be noted: treatment of neuralgia (Stacey et al., 2004).

With isoflavones, the half-lives is 4 to 8 h. For `NCC1(CC(=O)O)CCCCC1` [gabapentin], the “SF-36 improvement of mean scores for bodily pain” value in series [1] is given as 9.2 points.
